Consider 6 molecules from ChEMBL document CHEMBL5370694, “Novel Pyrrole Derivatives as Apolipoprotein L-1 Inhibitors for Treating Kidney Diseases and Sepsis” (ACS Med Chem Lett, 2023).

One assay has as its target T1, Apolipoprotein L1 (Homo sapiens, UniProt O14791).
T1 sequence (O14791 whole entry): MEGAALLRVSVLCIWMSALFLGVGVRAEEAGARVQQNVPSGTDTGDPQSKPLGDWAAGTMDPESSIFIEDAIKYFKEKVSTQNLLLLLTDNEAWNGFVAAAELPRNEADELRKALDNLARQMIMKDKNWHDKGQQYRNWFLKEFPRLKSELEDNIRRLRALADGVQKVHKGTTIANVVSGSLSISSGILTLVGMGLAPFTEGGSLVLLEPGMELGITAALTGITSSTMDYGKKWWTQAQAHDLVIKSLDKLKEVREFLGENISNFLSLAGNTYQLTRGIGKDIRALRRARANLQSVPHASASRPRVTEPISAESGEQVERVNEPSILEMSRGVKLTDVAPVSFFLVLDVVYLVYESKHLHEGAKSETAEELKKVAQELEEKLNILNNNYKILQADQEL
Put plainly: Inhibition of wild type APOL1 containing G0 in human U2OS cells incubated for 80 mins by thallium flux based FLIPR assay. It is filed as cell-based.

A short description of assay [1]: Inhibition of APOL1 isoform G2 variant in human U2OS cells incubated for 80 mins by thallium flux based FLIPR assay. The assay is classed as cell-based.

As usually defined, the IC50 is the concentration at which inhibition is half-maximal. High values mean weaker potency in that assay, low ones greater potency in that assay. Turning to `O=C(CCc1cc(-c2c(F)cc(F)cc2Cl)[nH]c1-c1ccc(Cl)cc1)N[C@@H]1C(=O)NC[C@H]1O`, the IC50 against Apolipoprotein L1 is 0.501 nM; in assay [1], 0.794 nM.

Turning to `O=C(CCc1cc(C2(C(F)(F)F)CC2)[nH]c1-c1ccc(C(F)(F)F)cc1)N[C@@H]1C(=O)NC[C@H]1O`, the figures for the IC50 (on Apolipoprotein L1; in assay [1]) were 2.51 nM and 5.01 nM, respectively.

As for `O=C(CCc1cc(-c2c(F)cc(F)cc2F)[nH]c1-c1ccc(Cl)cc1)N[C@@H]1C(=O)NC[C@H]1O`, the results for the IC50 (at Apolipoprotein L1; in assay [1]) were 3.16 nM and 3.98 nM, respectively.

On to `CC(C)(C)c1cc(CCC(=O)N[C@@H]2C(=O)NC[C@H]2O)c(-c2ccc(C(F)(F)F)cc2)[nH]1`, for which the IC50 on Apolipoprotein L1 is 1.58 nM; in assay [1] it was 5.01 nM.

As to `O=C(CCc1cc(C2(C(F)(F)F)CC2)[nH]c1-c1ccc(Cl)cc1)N[C@@H]1C(=O)NC[C@H]1O`, the IC50 was 2.51 nM at Apolipoprotein L1 and 3.98 nM in assay [1].

As for `O=C(CCc1c(-c2ccc(Cl)cc2)[nH]c(C2(C(F)(F)F)CC2)c1F)N[C@@H]1C(=O)NC[C@H]1O`, the IC50 was 2 nM against Apolipoprotein L1 and 5.01 nM in assay [1].
